In patent publication US20020054941A1, “Methods and compositions to enhance tenderness and value of meat” (The Board of Regents of the University of Nebraska, priority 2000, published 2002):
Marks after values point to notes of the source that are not given here.

Legend:
[1] = tested on: sternomandibularis beef muscles; experiment: pH of pre-rigor injected sectioned muscle; settings: injection 10% of muscle weight, 200 mM (glucose, calcium chloride 300 mM)
Procedure: (§1) Pre-rigor beef muscle was sectioned and the sections were injected at approximately 1 hour post-mortem with a volume of treatment solution equal to 10% of the muscle weight. Objective color measurements were taken on pieces of each muscle section and the pieces were then frozen, powdered and stored at −80° C. for up to 10 days before testing pH and analyzing oxidation-reduction potential. Shear force was evaluated as described immediately above. Solutions used in this procedure were as follows: sodium citrate (200 mM), sodium acetate (200 mM), glucose (300 mM), calcium citrate (200 mM), calcium chloride (300 mM), injection with water, and no injection (control). The calcium citrate solution was prepared as a suspension using 0.25% carrageenan and 200 mM calcium citrate due to its insolubility in water. However, use of calcium citrate can be optimized by increasing solubility by means known in the art.

[2] = tested on: sternomandibularis beef muscles; experiment: Shear force of pre-rigor injected sectioned muscle; settings: 200 mM (glucose, calcium chloride 300 mM)
Procedure: Pre-rigor beef muscle was sectioned into 100 g. samples at approximately 3 hours post-mortem. The pieces were injected with 10 mL of treatment solution followed by marination in the solution for 24 hours at 2° C. before testing pH and recording visual color of the muscle sections. For evaluation of shear force, samples were thawed, cooked, sliced (approximately 6 mm by 6 mm) and then cooled before readings were taken. The solutions used for this procedure were as described above for homogenized muscle.
as §1

[3] = tested on: semimembranosus beef muscles; experiment: Muscle pH, pre-rigor injection of whole muscle
Procedure: (§2) Experiment were conducted to test the effects of pre-rigor injection of several compounds. Effects of these compounds on pH, color, tenderness and other related traits of low-value beef cuts were investigated. Ten steers (22 to 24 mo of age, 515 to 676 kg live weight) were slaughtered according to current industry procedures. Pre-rigor semimembranosus (from the round), triceps brachii and supraspinatus muscles (from the chuck) were excised, after evisceration (approximately 1 hour post-mortem), from both sides of the carcass. Muscle sections were randomly assigned to the treatments: sodium citrate (NaC; 200 mM), sodium fluoride (NaF; 200 mM), sodium acetate (NaA; 200 mM), and calcium chloride (CaCl2; 300 mM). The control samples remained on the carcass at 2° C. for 24 hours to simulate commercial conditions. Following a cooling, control muscles were removed from each carcass (4 replicates), vacuum packaged and transferred to the holding cooler with the other cuts at 2° C. Calcium chloride treatment was included to be compared with the other treatments.
(§3) At 2 hours post-mortem, each muscle was injected with a volume equal to 8% of the muscle weight using a four-needle hand injector. The temperature of solutions were 4° C. Each muscle was individually treated (2% of solution was added to give a total of 10% of muscle weight) and tumbled in a 75-pound capacity tumbler (Röschermatic, Oshabrück, Germany) for 30 min to insure uniform distribution of the solution.
(§4) Samples of each muscle (approximately 100 g) were taken at 0 hour (before injection), 24, and 72 hours after injection for determination of pH, oxidation-reduction potential, glycogen content, R-values, NAD, and NADH. The samples were then immediately frozen in liquid nitrogen and stored at −80° C. until they were powdered and analyzed. Fresh muscle samples (approximately 20 g) were taken at 72 hours after injection and assayed immediately for water holding capacity and sarcomere length.
(§5) Duplicate pre-rigor samples (5 g) were weighed from powdered sample and homogenized (Polytron, Brinkman Instruments, New York, N.Y.) in 50 mL of 5 mM iodoacetic acid, 150 mM potassium chloride (pH 7.0, 24° C.) to stop glycolysis (Ahn et al., 1992). The pH of the suspension was measured with a general purpose electrode (Corning Glass Works, Corning, N.Y.) attached to an Orion Model SA 720 pH meter (Orion Research, Inc., Boston, Mass.). Post-rigor muscle pH was determined by homogenizing 5 g of sample in 50 mL of deionized water (Winger et al., 1979).

[4] = tested on: supraspinatus beef muscles; experiment: Muscle pH, pre-rigor injection of whole muscle
Procedure: as §2, §3, §4, §5

[5] = tested on: triceps brachii beef muscles; experiment: Muscle pH, pre-rigor injection of whole muscle; settings: 200 mM, calcium chloride 300 mM
Procedure: as §2, §3, §4, §5

[6] = tested on: semimembranosus beef muscles; experiment: Glycogen content, pre-rigor injection of whole muscle
[7] = 24 h, 200 mM, calcium chloride 300 mM
[8] = 72 h, 200 mM, calcium chloride 300 mM

O=C([O-])CC(O)(CC(=O)[O-])C(=O)[O-].[Na+].[Na+].[Na+] [Sodium citrate, sodium citrate]
PH (0 h) ([1]; 0 h): 6.86 | pH, 72 h ([1]; 72 h): 5.77^bc | Shear force, kg (72 h) [2]: 11.09^ab kg | pH, 0 h ([3]; 0 h (before injection)): 6.68 | pH, 24 h [3, 7]: 5.97^a | pH, 72 h [3, 8]: 5.78^b | pH, 0 h ([4]; 0 h (before injection)): 6.73 | pH, 24 h [4, 7]: 6.04^b | pH, 72 h [4, 8]: 5.86^b | pH, 0 h ([5]; 0 h (before injection)): 6.71 | pH, 24 h ([5]; 24 h after injection): 5.97^a | pH, 72 h ([5]; 72 h after injection): 5.72^b | Glycogen, 0 h ([6]; 0 h (before injection)): 65.12 μmol/g muscle | Glycogen, 24 h [6, 7]: 52.83^a μmol/g muscle | Glycogen, 72 h [6, 8]: 45.65^a μmol/g muscle
